Laboratory results published in PubChem BioAssay (NCI).
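Values below derive from 48-hour exposures of cells grown in 96-well plates, with endpoints linearly interpolated between the two concentrations bracketing the appropriate inhibition level. The concentration for full growth arrest is given as TGI.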

System: HCT-15 colon
Test: growth of human tumour cells (NCI), 48 h

Point of comparison: `O=C1C(Cl)C(c2cc3cc(Br)ccc3nc2Cl)N1c1ccc(F)c(Cl)c1` (stereo not given), TGI 27.6 µM. Against it:
- COCOc1cc(OCOC)cc(C(=O)Oc2ccccc2)c1 — higher, > 100 µM

System: NCI-H226 lung
Test: growth of human tumour cells (NCI), 48 h

Point of comparison: `O=C1C(Cl)C(c2cc3cc(Br)ccc3nc2Cl)N1c1ccc(F)c(Cl)c1` (stereo not given), TGI 40.2 µM. Against it:
- O=C(CSc1nc2ccccc2c2ccccc12)c1ccccc1 — higher, > 100 µM
- CN(C)C1C(=O)C(C(=O)NCN2CCCC2)=C(O)C2(O)C(=O)C3=C(O)c4c(O)cccc4C(C)(O)C3CC12 (stereo not given) — higher, > 100 µM
- COCOc1cc(OCOC)cc(C(=O)Oc2ccccc2)c1 — higher, > 100 µM

System: M14 melanoma
Test: growth of human tumour cells (NCI), 48 h

Point of comparison: `O=C1C(Cl)C(c2cc3cc(Br)ccc3nc2Cl)N1c1ccc(F)c(Cl)c1` (stereo not given), TGI 21.8 µM. Against it:
- CC#CC#C/C=C1/O[C@]2(CCC(OC(=O)CC(C)C)CO2)[C@@H]2O[C@H]12 (stereo not given in full) — 2.2-fold higher, 47.7 µM
- O=C(CSc1nc2ccccc2c2ccccc12)c1ccccc1 — higher, > 100 µM
- CN(C)C1C(=O)C(C(=O)NCN2CCCC2)=C(O)C2(O)C(=O)C3=C(O)c4c(O)cccc4C(C)(O)C3CC12 (stereo not given) — higher, > 100 µM
- COCOc1cc(OCOC)cc(C(=O)Oc2ccccc2)c1 — higher, > 100 µM

System: U251 CNS
Test: growth of human tumour cells (NCI), 48 h

Point of comparison: `CC#CC#C/C=C1/O[C@]2(CCC(OC(=O)CC(C)C)CO2)[C@@H]2O[C@H]12` (stereo not given in full), TGI 54.6 µM. Against it:
- O=C(CSc1nc2ccccc2c2ccccc12)c1ccccc1 — higher, > 100 µM
- CN(C)C1C(=O)C(C(=O)NCN2CCCC2)=C(O)C2(O)C(=O)C3=C(O)c4c(O)cccc4C(C)(O)C3CC12 (stereo not given) — higher, > 100 µM
- O=C1C(Cl)C(c2cc3cc(Br)ccc3nc2Cl)N1c1ccc(F)c(Cl)c1 (stereo not given) — 4.4-fold lower, 12.5 µM
- COCOc1cc(OCOC)cc(C(=O)Oc2ccccc2)c1 — higher, > 100 µM

System: HT29 colon
Test: growth of human tumour cells (NCI), 48 h

Point of comparison: `CC#CC#C/C=C1/O[C@]2(CCC(OC(=O)CC(C)C)CO2)[C@@H]2O[C@H]12` (stereo not given in full), TGI 35.4 µM. Against it:
- O=C(CSc1nc2ccccc2c2ccccc12)c1ccccc1 — higher, > 100 µM
- CN(C)C1C(=O)C(C(=O)NCN2CCCC2)=C(O)C2(O)C(=O)C3=C(O)c4c(O)cccc4C(C)(O)C3CC12 (stereo not given) — higher, > 100 µM
- O=C1C(Cl)C(c2cc3cc(Br)ccc3nc2Cl)N1c1ccc(F)c(Cl)c1 (stereo not given) — within 1.5-fold, 26.5 µM
- COCOc1cc(OCOC)cc(C(=O)Oc2ccccc2)c1 — higher, > 100 µM

System: SK-MEL-28 melanoma
Test: growth of human tumour cells (NCI), 48 h

Point of comparison: `O=C1C(Cl)C(c2cc3cc(Br)ccc3nc2Cl)N1c1ccc(F)c(Cl)c1` (stereo not given), TGI 34.5 µM. Against it:
- O=C(CSc1nc2ccccc2c2ccccc12)c1ccccc1 — higher, > 100 µM
- CN(C)C1C(=O)C(C(=O)NCN2CCCC2)=C(O)C2(O)C(=O)C3=C(O)c4c(O)cccc4C(C)(O)C3CC12 (stereo not given) — higher, > 100 µM
- COCOc1cc(OCOC)cc(C(=O)Oc2ccccc2)c1 — higher, > 100 µM

System: BT-549 breast
Test: growth of human tumour cells (NCI), 48 h

Point of comparison: `O=C1C(Cl)C(c2cc3cc(Br)ccc3nc2Cl)N1c1ccc(F)c(Cl)c1` (stereo not given), TGI 25.9 µM. Against it:
- CC#CC#C/C=C1/O[C@]2(CCC(OC(=O)CC(C)C)CO2)[C@@H]2O[C@H]12 (stereo not given in full) — 2.2-fold higher, 56.3 µM
- O=C(CSc1nc2ccccc2c2ccccc12)c1ccccc1 — higher, > 100 µM
- CN(C)C1C(=O)C(C(=O)NCN2CCCC2)=C(O)C2(O)C(=O)C3=C(O)c4c(O)cccc4C(C)(O)C3CC12 (stereo not given) — higher, > 100 µM
- COCOc1cc(OCOC)cc(C(=O)Oc2ccccc2)c1 — higher, > 100 µM

System: KM12 colon
Test: growth of human tumour cells (NCI), 48 h

Point of comparison: `O=C1C(Cl)C(c2cc3cc(Br)ccc3nc2Cl)N1c1ccc(F)c(Cl)c1` (stereo not given), TGI 7.77 µM. Against it:
- CC#CC#C/C=C1/O[C@]2(CCC(OC(=O)CC(C)C)CO2)[C@@H]2O[C@H]12 (stereo not given in full) — higher, > 100 µM
- O=C(CSc1nc2ccccc2c2ccccc12)c1ccccc1 — higher, > 100 µM
- CN(C)C1C(=O)C(C(=O)NCN2CCCC2)=C(O)C2(O)C(=O)C3=C(O)c4c(O)cccc4C(C)(O)C3CC12 (stereo not given) — higher, > 100 µM
- COCOc1cc(OCOC)cc(C(=O)Oc2ccccc2)c1 — higher, > 100 µM

System: T-47D breast
Test: growth of human tumour cells (NCI), 48 h

Point of comparison: `O=C1C(Cl)C(c2cc3cc(Br)ccc3nc2Cl)N1c1ccc(F)c(Cl)c1` (stereo not given), TGI 27.4 µM. Against it:
- CC#CC#C/C=C1/O[C@]2(CCC(OC(=O)CC(C)C)CO2)[C@@H]2O[C@H]12 (stereo not given in full) — 1.8-fold higher, 48.3 µM
- O=C(CSc1nc2ccccc2c2ccccc12)c1ccccc1 — higher, > 100 µM
- CN(C)C1C(=O)C(C(=O)NCN2CCCC2)=C(O)C2(O)C(=O)C3=C(O)c4c(O)cccc4C(C)(O)C3CC12 (stereo not given) — higher, > 100 µM
- COCOc1cc(OCOC)cc(C(=O)Oc2ccccc2)c1 — higher, > 100 µM

System: K-562 leukemia
Test: growth of human tumour cells (NCI), 48 h

Point of comparison: `O=C1C(Cl)C(c2cc3cc(Br)ccc3nc2Cl)N1c1ccc(F)c(Cl)c1` (stereo not given), TGI 17 µM. Against it:
- CC#CC#C/C=C1/O[C@]2(CCC(OC(=O)CC(C)C)CO2)[C@@H]2O[C@H]12 (stereo not given in full) — higher, > 100 µM
- O=C(CSc1nc2ccccc2c2ccccc12)c1ccccc1 — higher, > 100 µM
- CN(C)C1C(=O)C(C(=O)NCN2CCCC2)=C(O)C2(O)C(=O)C3=C(O)c4c(O)cccc4C(C)(O)C3CC12 (stereo not given) — higher, > 100 µM
- COCOc1cc(OCOC)cc(C(=O)Oc2ccccc2)c1 — higher, > 100 µM

System: DU-145 prostate
Test: growth of human tumour cells (NCI), 48 h

Point of comparison: `O=C1C(Cl)C(c2cc3cc(Br)ccc3nc2Cl)N1c1ccc(F)c(Cl)c1` (stereo not given), TGI 22.1 µM. Against it:
- CC#CC#C/C=C1/O[C@]2(CCC(OC(=O)CC(C)C)CO2)[C@@H]2O[C@H]12 (stereo not given in full) — higher, > 100 µM
- O=C(CSc1nc2ccccc2c2ccccc12)c1ccccc1 — higher, > 100 µM
- CN(C)C1C(=O)C(C(=O)NCN2CCCC2)=C(O)C2(O)C(=O)C3=C(O)c4c(O)cccc4C(C)(O)C3CC12 (stereo not given) — higher, > 100 µM
- COCOc1cc(OCOC)cc(C(=O)Oc2ccccc2)c1 — higher, > 100 µM

System: SR leukemia
Test: growth of human tumour cells (NCI), 48 h

Point of comparison: `O=C1C(Cl)C(c2cc3cc(Br)ccc3nc2Cl)N1c1ccc(F)c(Cl)c1` (stereo not given), TGI 2.61 µM. Against it:
- CC#CC#C/C=C1/O[C@]2(CCC(OC(=O)CC(C)C)CO2)[C@@H]2O[C@H]12 (stereo not given in full) — higher, > 100 µM
- O=C(CSc1nc2ccccc2c2ccccc12)c1ccccc1 — higher, > 100 µM
- CN(C)C1C(=O)C(C(=O)NCN2CCCC2)=C(O)C2(O)C(=O)C3=C(O)c4c(O)cccc4C(C)(O)C3CC12 (stereo not given) — higher, > 100 µM
- COCOc1cc(OCOC)cc(C(=O)Oc2ccccc2)c1 — higher, > 100 µM

System: EKVX NSCLC
Test: growth of human tumour cells (NCI), 48 h

Point of comparison: `CC#CC#C/C=C1/O[C@]2(CCC(OC(=O)CC(C)C)CO2)[C@@H]2O[C@H]12` (stereo not given in full), TGI 84.3 µM. Against it:
- O=C(CSc1nc2ccccc2c2ccccc12)c1ccccc1 — higher, > 100 µM
- CN(C)C1C(=O)C(C(=O)NCN2CCCC2)=C(O)C2(O)C(=O)C3=C(O)c4c(O)cccc4C(C)(O)C3CC12 (stereo not given) — higher, > 100 µM
- O=C1C(Cl)C(c2cc3cc(Br)ccc3nc2Cl)N1c1ccc(F)c(Cl)c1 (stereo not given) — 23-fold lower, 3.62 µM
- COCOc1cc(OCOC)cc(C(=O)Oc2ccccc2)c1 — higher, > 100 µM

System: SK-MEL-2 melanoma
Test: growth of human tumour cells (NCI), 48 h

Point of comparison: `CC#CC#C/C=C1/O[C@]2(CCC(OC(=O)CC(C)C)CO2)[C@@H]2O[C@H]12` (stereo not given in full), TGI 52.5 µM. Against it:
- O=C(CSc1nc2ccccc2c2ccccc12)c1ccccc1 — higher, > 100 µM
- CN(C)C1C(=O)C(C(=O)NCN2CCCC2)=C(O)C2(O)C(=O)C3=C(O)c4c(O)cccc4C(C)(O)C3CC12 (stereo not given) — higher, > 100 µM
- O=C1C(Cl)C(c2cc3cc(Br)ccc3nc2Cl)N1c1ccc(F)c(Cl)c1 (stereo not given) — 2.2-fold lower, 23.5 µM
- COCOc1cc(OCOC)cc(C(=O)Oc2ccccc2)c1 — higher, > 100 µM

System: UO-31 renal
Test: growth of human tumour cells (NCI), 48 h

Point of comparison: `O=C1C(Cl)C(c2cc3cc(Br)ccc3nc2Cl)N1c1ccc(F)c(Cl)c1` (stereo not given), TGI 0.29 µM. Against it:
- CC#CC#C/C=C1/O[C@]2(CCC(OC(=O)CC(C)C)CO2)[C@@H]2O[C@H]12 (stereo not given in full) — 130-fold higher, 36.5 µM
- O=C(CSc1nc2ccccc2c2ccccc12)c1ccccc1 — higher, > 100 µM
- CN(C)C1C(=O)C(C(=O)NCN2CCCC2)=C(O)C2(O)C(=O)C3=C(O)c4c(O)cccc4C(C)(O)C3CC12 (stereo not given) — higher, > 100 µM
- COCOc1cc(OCOC)cc(C(=O)Oc2ccccc2)c1 — higher, > 100 µM
